Our source for the melting point values is US8802678B2, “Carbonylated (aza) cyclohexanes as dopamine D3 receptor ligands” (Bioprojet, priority 2006, dated 2014).

Molecules are shown by their SMILES.

A word on the melting point: it is the temperature of the solid-liquid transition.

For the molecule `Cc1ccc(N2CCN(CC[C@H]3CC[C@H](NC(=O)CC(F)(F)F)CC3)CC2)cc1` [Example 493, 3,3,3-Trifluoro-N-{4-[2-(4-p-tolylpiperazin-1-yl)ethyl]cyclohexyl}propanamide], the melting point worked out at 217 °C.

In turn, `COCCCC(=O)N[C@H]1CC[C@H](CCN2CCN(c3cc(Cl)cc(Cl)c3)CC2)CC1` [Example 691, N-(4-{2-[4-(3,5-Dichlorophenyl)piperazin-1-yl]ethyl}cyclohexyl)-4-methoxybutanamide] showed a melting point of 184 °C.

Turning to `COCCCC(=O)N[C@H]1CC[C@H](CCN2CC=C(c3cccc(C#N)c3)CC2)CC1`, the melting point was found to be 178 °C.

The molecule `CC(=O)CN1CCC(CCN2CCN(c3cccc4c3OCCCO4)CC2)CC1.Cl.Cl` returned a melting point of 280 °C.

With `CC(=O)CN1CCC(CCN2CC=C(c3cccc4c3CCC4)CC2)CC1.Cl.Cl`, the melting point worked out at 291 °C.

Regarding `N#Cc1cccc(C2=CCN(CC[C@H]3CC[C@H](NC(=O)CCC(F)(F)F)CC3)CC2)c1`, the melting point stood at 177 °C.

The molecule `N#CCCCC(=O)N[C@H]1CC[C@H](CCN2CCN(c3cc(Cl)ccc3Cl)CC2)CC1` [Example 371, 4-Cyano-N-(4-{2-[4-(2,5-dichlorophenyl)piperazin-1-yl]ethyl}cyclohexyl)butanamide] gave a melting point of 179 °C.

The molecule `CC(C)(C)c1cc(N2CCN(CC[C@H]3CC[C@H](NC(=O)CC#N)CC3)CC2)cc(C(C)(C)C)c1` [Example 232, 2-Cyano-N-(4-{2-[4-(3,5-di-tert-butylphenyl)piperazin-1-yl]ethyl}cyclohexyl)acetamide] registered a melting point of 168 °C.

On to `NC(=O)CCC(=O)N[C@H]1CC[C@H](CCN2CCN(c3cc(C(F)(F)F)ccc3F)CC2)CC1` [Example 631, N-(4-{2-[4-(2-Fluoro-5-trifluoromethylphenyl)piperazin-1-yl]ethyl}cyclohexyl)succinamide], for which the melting point turned out to be 238 °C.

`CC(=O)CN1CCC(CCN2CCN(c3cccc(C)c3C)CC2)CC1.Cl.Cl`: the melting point is 290 °C.

In the case of `Cc1cccc(N2CCN(CC[C@H]3CC[C@H](NC(=O)CC(F)(F)F)CC3)CC2)c1C#N` [Example 115, N-(4-{2-[4-(2-Cyano-3-methylphenyl)piperazin-1-yl]ethyl}cyclohexyl)-3,3,3-trifluoropropanamide], the melting point worked out at 207 °C.

As for `COCC(=O)N[C@H]1CC[C@H](CCN2CCN(c3ccccc3C#N)CC2)CC1` [Example 58, N-(4-{2-[4-(2-Cyanophenyl)-piperazin-1-yl]ethyl}cyclohexyl)-2-methoxyacetamide], the melting point was 113 °C.

Take `N#CCCCC(=O)N[C@H]1CC[C@H](CCN2CCN(c3cc(C(F)(F)F)c(Cl)cc3Cl)CC2)CC1` [Example 424, 4-Cyano-N-(4-{2-[4-(2,4-dichloro-5-trifluoromethylphenyl)piperazin-1-yl]ethyl}cyclohexyl)butanamide]: the melting point was 188 °C.

Regarding `N#CCC(=O)N[C@H]1CC[C@H](CCN2CCN(c3cc(F)ccc3F)CC2)CC1` [Example 226, 2-Cyano-N-(4-{2-[4-(2,5-difluorophenyl)piperazin-1-yl]ethyl}cyclohexyl)acetamide], the melting point was found to be 198 °C.

Regarding `CC(=O)CN1CCC(CCN2CCN(c3ccccc3C(C)C)CC2)CC1.Cl.Cl`, the melting point came out at 260 °C.

As to `N#CCCCC(=O)N[C@H]1CC[C@H](CCN2CC=C(c3cccc(C(F)(F)F)c3)CC2)CC1`, the melting point is 102 °C.

For the molecule `CC(C)(C#N)C(=O)N[C@H]1CC[C@H](CCN2CCN(c3cccc(C(F)(F)F)c3)CC2)CC1` [Example 282, 2-Cyano-2,2-dimethyl-N-(4-{2-[4-(3-trifluoromethylphenyl)-piperazin-1-yl]ethyl}cyclohexyl)-acetamide], the melting point stood at 150 °C.

`N#CCCC(=O)N[C@H]1CC[C@H](CCN2CCN(c3cc(C(F)(F)F)ccc3F)CC2)CC1` [Example 668, 3-Cyano-N-(4-{2-[4-(2-fluoro-5-trifluoromethylphenyl)piperazin-1-yl]ethyl}cyclohexyl)propanamide] registered a melting point of 164 °C.

`CCc1cccc(N2CCN(CC[C@H]3CC[C@H](NC(=O)C4CC=CC4)CC3)CC2)c1` [Example 378, Cyclopent-3-enecarboxylic acid (4-{2-[4-(3-ethylphenyl)piperazin-1-yl]ethyl}cyclohexyl) amide] came in with a melting point of 185 °C.

For `O=C(N[C@H]1CC[C@H](CCN2CCN(c3cccc(C(F)(F)F)c3F)CC2)CC1)C1=COCCC1` [Example 476], the melting point was 207 °C.

For the molecule `CC(=O)CN1CCC(CCN2CC=C(c3cccc(C(F)(F)F)c3)CC2)CC1.Cl.Cl`, the melting point was found to be 268 °C.

In the case of `N#CCC(=O)N[C@H]1CC[C@@H](CCN2CC=C(c3ccc(F)cc3)CC2)CC1`, the melting point stood at 147 °C.

As to `N#CCCC(=O)N[C@H]1CC[C@H](CCN2CCN(c3ccc(F)c(Cl)c3F)CC2)CC1` [Example 732, N-(4-{2-[4-(3-Chloro-2,4-difluorophenyl)piperazin-1-yl]ethyl}cyclohexyl)-3-cyanopropanamide], the melting point amounted to 190 °C.

`N#CCC(=O)N[C@H]1CC[C@H](CCN2CCN(c3cc(F)cc(Cl)c3)CC2)CC1` [Example 181, N-(4-{2-[4-(3-Chloro-5-fluorophenyl)piperazin-1-yl]ethyl}cyclohexyl)-2-cyanoacetamide]: the melting point lay within 181 to 183 °C.

Turning to `Cc1cc(F)cc(N2CCN(CC[C@H]3CC[C@H](NC(=O)CCCC#N)CC3)CC2)c1` [Example 726, 4-Cyano-N-(4-{2-[4-(3-fluoro-5-methylphenyl)piperazin-1-yl]ethyl}cyclohexyl)butanamide], the melting point was determined as 150 °C.

In turn, `O=C(C[C@H]1CC[C@H](CCN2CCN(c3cccc(C(F)(F)F)c3)CC2)CC1)N1CCCC1` [Example 294, 1-Pyrrolidin-1-yl-2-(4-{2-[4-(3-trifluoromethylphenyl)piperazin-10yl]ethyl}cyclohexyl)ethanone] had a melting point of 131 °C.

The molecule `CC(C)c1cccc(N2CCN(CC[C@H]3CC[C@H](NC(=O)CC#N)CC3)CC2)c1` [Example 335, 2-Cyano-N-(4-{2-[4-(3-isopropylphenyl)piperazin-1-yl]ethyl}cyclohexyl)acetamide] came in with a melting point of 153 °C.

For the molecule `N#CCC(=O)N[C@H]1CC[C@H](CCN2CCN(c3cccc(F)c3F)CC2)CC1` [Example 113, 2-Cyano-N-(4-{2-[4-(2,3-difluorophenyl)piperazin-1-yl]ethyl}cyclohexyl)acetamide], the melting point came out at 190 °C.

`N#CCC(=O)N[C@H]1CC[C@H](CCN2CCN(c3cccc(C(F)(F)F)c3C#N)CC2)CC1` [Example 103, 2-Cyano-N-(4-{2-[4-(2-cyano-3-trifluoromethylphenyl)piperazin-1-yl]ethyl}cyclohexyl)acetamide] yielded a melting point of 222 °C.

For `CCOc1ccccc1N1CCN(CCC2CCN(CC(C)=O)CC2)CC1.Cl.Cl`, the melting point was determined as 271 °C.

`O=C(N[C@H]1CC[C@H](CCN2CCN(c3cccc(C(F)(F)F)c3F)CC2)CC1)C1=CCCC1` [Example 458, Cyclopent-1-enecarboxylic acid (4-{2-[4-(2-fluoro-3-trifluoro-methylphenyl)piperazin-1-yl]ethyl}cyclohexyl) amide] came in with a melting point of 190 °C.

With `N#CCCCC(=O)N[C@H]1CC[C@H](CCN2CCN(c3ccc(C(F)(F)F)cc3F)CC2)CC1` [Example 646, 4-Cyano-N-(4-{2-[4-(2-fluoro-4-trifluoromethylphenyl)piperazin-1-yl]ethyl}cyclohexyl)-butanamide], the melting point amounted to 165 °C.

The molecule `CC(=O)CN1CCC(CCN2CCN(c3cc(F)cc(F)c3)CC2)CC1.Cl.Cl` came in with a melting point of 260 °C.

In turn, `CC(C)OCC(=O)N[C@H]1CC[C@H](CCN2CCN(c3cccc(F)c3F)CC2)CC1.Cl` had a melting point of 215 °C.

In the case of `COCc1cccc(N2CCN(CCC3CCN(CC(C)=O)CC3)CC2)c1.Cl.Cl`, the melting point was found to be 255 °C.

As to `Cc1c(N2CCN(CC[C@H]3CC[C@H](NC(=O)CCCC#N)CC3)CC2)cccc1C(F)(F)F` [Example 230, 4-Cyano-N-(4-{2-[4-(2-methyl-3-trifluoromethylphenyl)piperazin-1-yl]ethyl}cyclohexyl)butanamide], the melting point was 162 °C.

`Cl.N#CCCCC(=O)N[C@H]1CC[C@H](CCN2CCN(c3ccccc3C(F)(F)F)CC2)CC1` yielded a melting point of 248 °C.

Take `N#Cc1ccccc1N1CCN(CC[C@H]2CC[C@H](NC(=O)C3=CCCC3)CC2)CC1` [Example 74, Cyclopent-1-enecarboxylic acid (4-{2-[4-(2-cyanophenyl)-piperazin-1-yl]ethyl}cyclohexyl)-amide]: the melting point stood at 167 °C.

The molecule `N#CCC(=O)N[C@H]1CC[C@H](CCN2CCC(c3cc(C(F)(F)F)cc(C(F)(F)F)c3)CC2)CC1` [Example 200, N-(4-{2-[4-(3,5-Bis-trifluoro-methylphenyl)piperidin-1-yl]ethyl}cyclohexyl)-2-cyanoacetamide] returned a melting point of 164 °C.

`COCC(=O)N[C@H]1CC[C@H](CCN2CCN(c3ccccc3)CC2)CC1` [Example 60, 2-Methoxy-N-{4-[2-(4-phenylpiperazin-1-yl)ethyl]-cyclohexyl}acetamide]: the melting point came out at 136 °C.

`CC(=O)CN1CCC(CCN2CCN(c3ccc(F)c(C#N)c3F)CC2)CC1` [Example 690, 2,6-Difluoro-3-(4-{2-[1-(2-oxo-propyl)piperidin-4-yl]ethyl}piperazin-1-yl)benzonitrile] showed a melting point of 108 °C.

Molecule `CS(=O)(=O)c1cccc(N2CCN(CC[C@H]3CC[C@H](NC(=O)CC(F)(F)F)CC3)CC2)c1` [Example 452, 3,3,3-Trifluoro-N-(4-{2-[4-(3-methanesulfonylphenyl)piperazin-1-yl]ethyl}cyclohexyl)-propanamide] had a melting point of 173 °C.

The molecule `N#CCC(=O)N[C@H]1CC[C@H](CCN2CCN(c3ccc4c(c3)CCCC4)CC2)CC1` [Example 211, 2-Cyano-N-(4-{2-[4-(5,6,7,8-tetrahydronaphthalen-2-yl)piperazin-1-yl]ethyl}cyclohexyl)acetamide] yielded a melting point of 200 °C.
